Series [1] relates to MCF7. Description: Cytotoxicity against human MCF7 cells assessed as reduction in cell viability measured after 48 hrs by SRB assay. It counts as functional. On the technique in general: Sulforhodamine B stains cellular protein and so reports cell mass.
Series [2] deals with T1, Aromatase (Homo sapiens, UniProt P11511).
T1 sequence (P11511 whole entry): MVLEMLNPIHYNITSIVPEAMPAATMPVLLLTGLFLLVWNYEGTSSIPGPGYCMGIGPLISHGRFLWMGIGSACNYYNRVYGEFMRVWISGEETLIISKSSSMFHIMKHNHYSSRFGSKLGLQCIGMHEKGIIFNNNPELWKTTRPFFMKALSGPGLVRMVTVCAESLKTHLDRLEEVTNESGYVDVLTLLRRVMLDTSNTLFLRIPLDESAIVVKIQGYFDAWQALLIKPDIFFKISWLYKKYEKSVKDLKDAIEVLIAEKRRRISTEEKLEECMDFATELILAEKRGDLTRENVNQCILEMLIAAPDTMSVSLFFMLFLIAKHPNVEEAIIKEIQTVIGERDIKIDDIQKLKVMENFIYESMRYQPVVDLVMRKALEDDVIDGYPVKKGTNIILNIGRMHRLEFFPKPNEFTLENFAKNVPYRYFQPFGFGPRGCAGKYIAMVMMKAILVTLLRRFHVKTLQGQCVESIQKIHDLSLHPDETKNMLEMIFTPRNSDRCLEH
As to the kind of experiment: Inhibition of aromatase in human MCF7 cells using androstenedione as substrate measured after 2 hrs. It counts as cell-based.

Series [3] deals with T47D. Description: Cytotoxicity against human T47D cells assessed as reduction in cell viability measured after 48 hrs by SRB assay. It counts as functional.
In series [4] the test system is MDA-MB-231. Description: Cytotoxicity against human MDA-MB-231 cells assessed as reduction in cell viability measured after 48 hrs by SRB assay. The format is functional.
In series [5] the target is Poly [ADP-ribose] polymerase 2 (Homo sapiens, UniProt Q9UGN5). Description: Inhibition of PARP-2 (unknown origin).
Series [6] is described as follows: Cytotoxicity against African green monkey Vero cells assessed as reduction in cell viability measured after 48 hrs by SRB assay. It counts as toxicity, cell-based. The following applies: chlorocebus sabaeus.
Series [7] deals with MDA-MB-468. Description: Cytotoxicity against human MDA-MB-468 cells assessed as reduction in cell viability measured after 48 hrs by SRB assay. It counts as functional.
Series [8] deals with Histone deacetylase. As to the kind of experiment: Inhibition of HDAC (unknown origin). It counts as protein assay, Homo sapiens.
Series [9] addresses Carbonic anhydrase 2 (Homo sapiens, UniProt P00918). As to the kind of experiment: Inhibition of CA2 (unknown origin) using p-nitrophenyl acetate as substrate preincubated for 10 mins followed by substrate addition and measured after 30 mins by spectrophotometry.
The test system of series [10] is BT-549. As to the kind of experiment: Cytotoxicity against human BT-549 cells assessed as reduction in cell viability measured after 48 hrs by SRB assay. It counts as functional.
Series [11] has as its system RPMI-8226. As to the kind of experiment: Cytotoxicity against human RPMI-8226 cells assessed as reduction in cell viability measured after 48 hrs by SRB assay. It counts as functional, cell-based. The following applies: RPMI-8226, 48 h.
Series [12] has as its target T2, Aromatase (Rattus norvegicus, UniProt P22443).
T2 sequence (P22443 whole entry): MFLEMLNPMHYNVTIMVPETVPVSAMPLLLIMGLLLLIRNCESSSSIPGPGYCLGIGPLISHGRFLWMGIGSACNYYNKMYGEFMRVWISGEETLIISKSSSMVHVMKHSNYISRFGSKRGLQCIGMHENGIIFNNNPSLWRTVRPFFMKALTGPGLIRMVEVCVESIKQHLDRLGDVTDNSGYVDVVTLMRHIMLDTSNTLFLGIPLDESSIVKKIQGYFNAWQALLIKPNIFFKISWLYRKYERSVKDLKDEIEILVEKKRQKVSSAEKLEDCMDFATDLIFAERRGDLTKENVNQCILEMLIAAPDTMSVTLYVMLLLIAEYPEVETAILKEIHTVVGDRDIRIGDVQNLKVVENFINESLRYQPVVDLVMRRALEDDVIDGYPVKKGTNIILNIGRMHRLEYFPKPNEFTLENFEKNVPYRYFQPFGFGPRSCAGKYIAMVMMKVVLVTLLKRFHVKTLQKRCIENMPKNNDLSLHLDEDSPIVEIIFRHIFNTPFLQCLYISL
Description: Inhibition of rat aromatase measured after 2 hrs by ELISA. For orientation: In an ELISA, binding on a coated surface is turned into a signal by an enzyme label.

The subject of series [13] is MDA-MB-231. Description: Cytotoxicity against human MDA-MB-231 cells assessed as reduction in cell viability measured after 48 hrs by MTT assay. The format is functional, cell-based. The following applies: MDA-MB-231, 48 h. For orientation: Tetrazolium assays rely on reduction of a dye to a coloured formazan, in cell work by metabolically active cells.

Poly [ADP-ribose] polymerase 2, sequence (Q9UGN5 whole entry): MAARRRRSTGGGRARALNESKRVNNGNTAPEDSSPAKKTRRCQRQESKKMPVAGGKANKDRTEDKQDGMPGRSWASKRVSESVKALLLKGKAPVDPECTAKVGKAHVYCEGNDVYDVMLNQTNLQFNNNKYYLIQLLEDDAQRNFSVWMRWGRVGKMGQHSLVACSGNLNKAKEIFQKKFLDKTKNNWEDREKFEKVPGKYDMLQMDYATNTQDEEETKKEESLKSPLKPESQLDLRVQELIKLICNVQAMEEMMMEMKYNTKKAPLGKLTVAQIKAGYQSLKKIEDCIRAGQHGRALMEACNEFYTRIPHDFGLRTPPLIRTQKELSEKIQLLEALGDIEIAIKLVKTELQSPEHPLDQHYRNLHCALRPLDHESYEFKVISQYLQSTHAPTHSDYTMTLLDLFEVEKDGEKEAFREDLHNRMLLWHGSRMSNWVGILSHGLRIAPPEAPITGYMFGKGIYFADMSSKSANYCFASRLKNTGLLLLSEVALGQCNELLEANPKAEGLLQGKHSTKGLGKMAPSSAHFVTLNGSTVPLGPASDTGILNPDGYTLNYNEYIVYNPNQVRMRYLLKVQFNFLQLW

As usually defined, the GI50 is the concentration at which growth is held to half of that of the control. As to `CS(=O)(=O)N1CCN(Cc2nc3cc(F)ccc3o2)CC1`, in series [1], the concentration for 50% growth inhibition (GI50) was 29.8 µM.
Same read-out and setting: then `O=S(=O)(c1ccccc1)N1CCN(Cc2nc3cc(F)ccc3o2)CC1`, with 8.56 µM; and `O=S(=O)(c1ccc(F)cc1)N1CCN(Cc2nc3cc(F)ccc3o2)CC1`, with 6.52 µM.
In the case of `O=[N+]([O-])c1cccc(S(=O)(=O)N2CCN(Cc3nc4cc(F)ccc4o3)CC2)c1`, the GI50 in series [1] was 3.25 µM.
Regarding `O=[N+]([O-])c1ccccc1S(=O)(=O)N1CCN(Cc2nc3cc(F)ccc3o2)CC1`, the GI50 in [1] came out at 5.95 µM.
Same read-out and setting: the value for `O=S(=O)(c1cccc2ccccc12)N1CCN(Cc2nc3cc(F)ccc3o2)CC1` was 12.5 µM; that for `CN(C)S(=O)(=O)N1CCN(Cc2nc3cc(F)ccc3o2)CC1` was 18.3 µM.
On the same count and under the same terms, then `CCS(=O)(=O)N1CCN(Cc2nc3cc(F)ccc3o2)CC1`, with 14.4 µM; and `O=[N+]([O-])c1ccc(S(=O)(=O)N2CCN(Cc3nc4cc(F)ccc4o3)CC2)cc1`, with 1.02 µM.
On the same count and under the same terms, the value for `O=Cc1ccc(S(=O)(=O)N2CCN(Cc3nc4cc(F)ccc4o3)CC2)cc1` was 2.45 µM.
Turning to `COc1ccccc1S(=O)(=O)N1CCN(Cc2nc3cc(F)ccc3o2)CC1`, the GI50 in [1] is 4.63 µM.
In the case of `O=S(=O)(N1CCCCC1)N1CCN(Cc2nc3cc(F)ccc3o2)CC1`, the GI50 in series [1] amounted to 9.33 µM.
Same read-out and setting: the value for `O=S(=O)(N1CCOCC1)N1CCN(Cc2nc3cc(F)ccc3o2)CC1` was 10.3 µM.
What is called IC50 is the concentration that gives 50% inhibition. On to `CC(C)(C)c1ccc(S(=O)(=O)N2CCN(Cc3nc4cc(F)ccc4o3)CC2)cc1`, for which the IC50 in [2] came to 64.9 nM; in series [5], 739 nM; in series [8] it was 1125 nM; in series [9] it was 4.1 µM. For the same molecule, the GI50 in series [3] came to 2.55 µM; in [1], 0.22 µM; in series [4] it was 490 nM; in series [7], 870 nM; in series [10] it was 1730 nM. Besides, the GI50 at 48 h in series [6] was found to be 67.1 µM.
Take `CC(C)S(=O)(=O)N1CCN(Cc2nc3cc(F)ccc3o2)CC1`: the GI50 in [1] amounted to 21.6 µM.
On the same count and under the same terms, then `Cc1ccc(S(=O)(=O)N2CCN(Cc3nc4cc(F)ccc4o3)CC2)cc1`, with 1.73 µM; and `CN1CCN(S(=O)(=O)N2CCN(Cc3nc4cc(F)ccc4o3)CC2)CC1`, with 7.37 µM.
With `O=S(=O)(C1CC1)N1CCN(Cc2nc3cc(F)ccc3o2)CC1`, the GI50 in series [1] stood at 25.1 µM.
As for `Cc1nc(Nc2nc3ccccc3o2)nc(-c2cccc([N+](=O)[O-])c2)c1C(=O)Nc1ccc(F)cc1Cl`, the IC50 in series [11] was 720 nM.
As to `CC(C)(C#N)c1cc(Cn2cncn2)cc(C(C)(C)C#N)c1` [ANASTROZOLE], the results for the IC50 in series [12] and in [13] were 3930 nM and 1210 nM, respectively.
As for `COc1cccc2c1C(=O)c1c(O)c3c(c(O)c1C2=O)C[C@@](O)(C(=O)CO)C[C@@H]3O[C@H]1C[C@H](N)[C@H](O)[C@H](C)O1` [DOXORUBICIN], the 50% growth inhibitory concentration (GI50) in series [3] amounted to 3.78 µM; in [1] it was 0.89 µM; in series [4] it was 140 nM; in [7], 530 nM; in series [10] it was 2010 nM. Also, the GI50 at 48 h in [6] is 143 µM.
As for `N#Cc1ccc(C(c2ccc(C#N)cc2)n2cncn2)cc1` [LETROZOLE], the values for the IC50 in series [12] and in series [13] were 290 nM and 1270 nM, respectively.

Values taken from ChEMBL document CHEMBL6109100, “Discovery of novel benzoxazole analogues as potential anticancer agent selectively targeting aromatase” (Bioorg Med Chem, 2025).
